These results are taken from patent EP0297547A2, “Use of hydrolyzable tannins for treatement and prophylaxis of AIDS” (LEAD CHEMICAL COMPANY LTD., priority 1987, dated 1989).

The subject of one data set is Hela-S3 cells. The data set is described as follows: Cytotoxicity to Hela-S3 cells (colony formation). Format: cell-based. The note with it: sensitized 2 hours at 37°C, colonies counted in 72 hours. As for the experimental part: Hela-S3 cells (1 x 10⁴ cells/ml) were applied to an Eagle's MEM medium or a 10 % fresh calf serum-containing Eagle's MEM medium, and Agrimoniin was added thereto to sensitize the cells at 37°C for 2 hours. The concentration of the Agrimoniin added was variously varied. After sensitization, the cells were washed with Hanks' solution and then incubated in a CO₂ incubator containing a 10 % fresh calf serum-containing Eagle's MEM medium at 37°C for 72 hours. […] In addition, IC₅₀ of Agrimoniin to Hela-S3 cells in the 10 % fresh calf serum-containing Eagle's MEM medium was improved to be 57.4 µg/ml. From these experiments, it is noted that ellagitannins have a relatively strong direct cytotoxic action but the cytotoxic action may be reduced by addition of proteins such as serum to the culture medium.

The test system of a further data set is ddy mice. The data set is described as follows: LD50 by probit method. Format: in vivo. From the text: 50 % lethal dose (LD₅₀) of Coriariin A to ddy mice was obtained by probit method.

As for `O=C(O[C@H]1O[C@@H]2COC(=O)c3cc(O)c(O)c(O)c3-c3c(cc(O)c(O)c3O)C(=O)O[C@H]2[C@@H]2OC(=O)c3cc(O)c(O)c(O)c3-c3c(cc(O)c(O)c3O)C(=O)O[C@@H]12)c1cc(O)c(O)c(Oc2c(C(=O)O[C@H]3O[C@@H]4COC(=O)c5cc(O)c(O)c(O)c5-c5c(cc(O)c(O)c5O)C(=O)O[C@H]4[C@@H]4OC(=O)c5cc(O)c(O)c(O)c5-c5c(cc(O)c(O)c5O)C(=O)O[C@@H]34)cc(O)c(O)c2O)c1` [Agrimoniin], the “50 % cell-inhibiting concentration (IC₅₀)” value was 57.4 µg/mL in the data set with Hela-S3 cells (10 % fresh calf serum-containing Eagle's MEM medium) and 7.3 µg/mL with Hela-S3 cells (Eagle's MEM medium).

`O=C(O[C@@H]1O[C@@H]2COC(=O)c3cc(O)c(O)c(O)c3-c3c(cc(O)c(O)c3O)C(=O)O[C@H]2[C@H](OC(=O)c2cc(O)c(O)c(O)c2)[C@H]1OC(=O)c1cc(O)c(O)c(O)c1)c1cc(O)c(O)c(Oc2c(C(=O)O[C@H]3O[C@@H]4COC(=O)c5cc(O)c(O)c(O)c5-c5c(cc(O)c(O)c5O)C(=O)O[C@H]4[C@H](OC(=O)c4cc(O)c(O)c(O)c4)[C@H]3OC(=O)c3cc(O)c(O)c(O)c3)cc(O)c(O)c2O)c1` [Coriariin A]: the LD₅₀ in the data set with ddy mice (Intraabdominal, Female) is reported as 119.1 mg/kg; in the data set with ddy mice (Intraabdominal, Male), 120.2 mg/kg; with ddy mice (Intravenous, Female), 36.8 mg/kg; with ddy mice (Intravenous, Male), 37.5 mg/kg; in the data set on ddy mice (Peroral, Female), 1000 or more mg/kg; in the data set with ddy mice (Peroral, Male), 1000 or more mg/kg.
